Data taken from ChEMBL document CHEMBL2202959, “Essential structure of opioid κ receptor agonist nalfurafine for binding to the κ receptor 3: synthesis of decahydro(iminoethano)phenanthrene derivatives with an oxygen functionality at the 3-position and their pharmacologies” (Bioorg Med Chem Lett, 2012).

Experiments:
[1] = Selectivity ratio of Ki for delta opioid receptor in mouse whole brain membranes without cerebellum to Ki for kappa opioid receptor in guinea pig cerebellum membranes; format: cell membranes
[2] = Selectivity ratio of Ki for mu opioid receptor in mouse whole brain membranes without cerebellum to Ki for kappa opioid receptor in guinea pig cerebellum membranes; format: cell membranes
[3] = biological target: Kappa-type opioid receptor (Cavia porcellus, UniProt P41144); experiment: Displacement of [3H]U-69,593 from kappa opioid receptor in guinea pig cerebellum membranes; format: cell membranes, Membrane
Kappa-type opioid receptor, sequence (P41144 whole entry): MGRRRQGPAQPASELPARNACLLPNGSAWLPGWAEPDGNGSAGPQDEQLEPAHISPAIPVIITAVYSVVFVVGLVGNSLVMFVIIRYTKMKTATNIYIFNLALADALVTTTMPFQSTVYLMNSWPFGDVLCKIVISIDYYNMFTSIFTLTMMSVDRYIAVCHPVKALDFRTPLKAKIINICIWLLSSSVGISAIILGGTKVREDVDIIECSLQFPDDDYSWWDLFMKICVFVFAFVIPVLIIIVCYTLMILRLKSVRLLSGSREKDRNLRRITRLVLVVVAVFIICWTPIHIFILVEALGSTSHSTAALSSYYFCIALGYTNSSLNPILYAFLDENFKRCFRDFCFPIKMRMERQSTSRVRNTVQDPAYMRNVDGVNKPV

[4] = biological target: Delta-type opioid receptor (Mus musculus, UniProt P32300); experiment: Displacement of [3H]DPDPE from delta opioid receptor in mouse whole brain membranes without cerebellum; format: cell membranes, Membrane
Delta-type opioid receptor, sequence (P32300 whole entry): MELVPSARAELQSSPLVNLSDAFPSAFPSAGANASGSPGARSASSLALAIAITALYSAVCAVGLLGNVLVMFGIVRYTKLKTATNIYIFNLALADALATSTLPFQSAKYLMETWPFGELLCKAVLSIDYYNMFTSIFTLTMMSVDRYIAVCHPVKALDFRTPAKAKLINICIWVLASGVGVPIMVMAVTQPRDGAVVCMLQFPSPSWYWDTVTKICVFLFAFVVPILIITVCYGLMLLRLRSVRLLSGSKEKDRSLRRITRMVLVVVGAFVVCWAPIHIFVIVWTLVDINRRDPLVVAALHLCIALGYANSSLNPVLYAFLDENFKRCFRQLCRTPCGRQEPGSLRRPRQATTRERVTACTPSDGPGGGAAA

Mu-type opioid receptor = Mu-type opioid receptor (Mus musculus, UniProt P42866); experiment: Displacement of [3H]DAMGO from mu opioid receptor in mouse whole brain membranes without cerebellum; format: cell membranes, Membrane
Mu-type opioid receptor, sequence (P42866 whole entry): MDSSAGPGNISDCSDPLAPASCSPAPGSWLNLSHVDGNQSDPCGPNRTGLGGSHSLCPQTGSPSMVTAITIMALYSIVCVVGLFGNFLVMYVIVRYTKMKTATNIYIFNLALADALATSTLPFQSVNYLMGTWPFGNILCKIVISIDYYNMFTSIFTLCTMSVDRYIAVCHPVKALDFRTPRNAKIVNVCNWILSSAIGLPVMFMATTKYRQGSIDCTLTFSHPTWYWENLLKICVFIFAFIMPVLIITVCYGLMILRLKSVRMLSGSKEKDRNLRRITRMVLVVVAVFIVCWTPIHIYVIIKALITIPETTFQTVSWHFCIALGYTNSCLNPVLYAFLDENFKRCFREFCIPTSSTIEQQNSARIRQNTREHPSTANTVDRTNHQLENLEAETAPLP

SMILES	Ratio Ki [1]	Ratio Ki [2]	Ki [3] [nM]	Ki [4] [nM]	Ki (Mu-type opioid receptor) [nM]
CN(C(=O)/C=C/c1ccoc1)[C@H]1CC[C@@]2(O)[C@H]3CC4=C(C[C@@H](O)CC4)[C@@]2(CCN3CC2CC2)C1	19	12	0.451	8.66	5.49
CN(C(=O)/C=C/c1ccoc1)[C@@H]1CC[C@@]2(O)[C@H]3CC4=C(CC(=O)CC4)[C@@]2(CCN3CC2CC2)C1	5.1	3.5	14.5	74.2	51.1
CN(C(=O)/C=C/c1ccoc1)[C@@H]1CC[C@@]2(O)[C@H]3CC4=C(C[C@H](O)CC4)[C@@]2(CCN3CC2CC2)C1	65	79	0.733	47.5	57.6
CN(C(=O)/C=C/c1ccoc1)[C@H]1CC[C@@]2(O)[C@H]3Cc4ccc(O)cc4[C@@]2(CCN3CC2CC2)C1	3.8	2	0.163	0.623	0.324
CN(C(=O)/C=C/c1ccoc1)[C@H]1CC[C@@]2(O)[C@H]3CC4=C(CC(=O)CC4)[C@@]2(CCN3CC2CC2)C1	20	12	2.23	44.5	26
CN(C(=O)/C=C/c1ccoc1)[C@H]1CC[C@@]2(O)[C@H]3CC4=C(CCCC4)[C@@]2(CCN3CC2CC2)C1	13	71	2.06	26.4	147
CN(C(=O)/C=C/c1ccoc1)[C@H]1CC[C@@]2(O)[C@H]3CC4=C(C[C@H](O)CC4)[C@@]2(CCN3CC2CC2)C1	7.7	4.8	1.1	8.45	5.26
CN(C(=O)/C=C/c1ccoc1)[C@H]1CC[C@@]2(O)[C@H]3Cc4ccccc4[C@@]2(CCN3CC2CC2)C1	19	22	0.303	5.65	6.52
CN(C(=O)/C=C/c1ccoc1)[C@H]1CC[C@H]2[C@H]3CC4=C(CCCC4)[C@@]2(CCN3CC2CC2)C1	14	3.8	2.28	32.9	8.62
CN(C(=O)/C=C/c1ccoc1)[C@@H]1CC[C@@]2(O)[C@H]3Cc4ccccc4[C@@]2(CCN3CC2CC2)C1	95	36	0.34	32.4	12.3
CN(C(=O)/C=C/c1ccoc1)[C@H]1CC[C@@]2(O)[C@H]3Cc4cccc5c4[C@@]2(CCN3CC2CC2)[C@H]1O5	146	26	0.34	49.5	8.88
CN(C(=O)/C=C/c1ccoc1)[C@@H]1CC[C@@]2(O)[C@H]3CC4=C(C[C@@H](O)CC4)[C@@]2(CCN3CC2CC2)C1	328	49	0.711	233	34.7
